Laboratory results: patent publication EP0073394A1, “2-Arylazo-2-imidazolines, acyl derivatives of the same, process for their preparation and the use in the control of ectoparasites and/or endoparasites” (BAYER AG, priority 1981, dated 1983)

System: Boophilus microplus, Biarra-Stamm
Assay: Tick test (Zeckentest): in vitro test for inhibition of egg laying after dipping adult engorged female ticks
Type: in vivo
Details: Rhipicephalus microplus, 480 h, resistant Biarra strain, 1 min dip, read after 20 days, read-out: 50 % Hemmung bei einer Wirkstoffkonzentration in ppm a.i. von
Text: Lösungsmittel: 35 Gewichtsteile Ethylenglykolmonomethylether 35 Gewichtsteile Nonylphenolpolyglykolether
Zwecks Herstellung einer geeigneten Formulierung vermischt man drei Gewichtsteile Wirkstoff mit sieben Teilen des oben angegebenen Lösungsmittel-Emulgator-Gemisches und verdünnt das so erhaltene Emulsionskonzentrat mit Wasser auf die jeweils gewünschte Konzentration.
In diese Wirkstoffzubereitungen werden adulte, vollgesogene Zeckenweibchen der Art Boophilus microplus (resistent) eine Minute lang getaucht. Nach dem Tauchen von je 10 weiblichen Exemplaren überführt man diese in Petrischalen, deren Boden mit einer entsprechend großen Filterscheibe belegt ist.
Nach 20 Tagen wird die Wirksamkeit der Wirkstoffzubereitung bestimmt durch Ermittlung der Hemmung der Eiablage gegenüber unbehandelten Kontrollzecken. Die Wirkung drückt man in Prozent aus, wobei 100 % bedeutet, daß keine Eier mehr abgelegt wurden und 0 % besagt, daß die Zecken Eier in normaler Menge ablegten.
Untersuchter Wirkstoff, geprüfte Konzentrationen, getestete Parasiten und erhaltene Befunde gehen aus der folgenden Tabelle hervor.

## Cc1cc(Cl)ccc1NC(=S)N(C)C [Chloromethiuron]
  IC50: > 5000 µg/mL
